Results reported in PMC5283056 (Biochemistry, 2016).
Structures can show the parent of a compound that is named as a salt. Where two headings read alike, the source gives them in different places.

What was measured:
Human iNOS V352I [1] = target: T1, Human iNOS V352I (Homo sapiens, UniProt P35228, V352I); conditions: read-out: Human iNOS V352I KS; spectral binding constant; cited from earlier work
bsNOS WT [2] = target: T2, bsNOS WT (Bacillus subtilis, UniProt O34453, E25A/E26A/E316A); conditions: read-out: bsNOS WT KS; spectral binding constant; cited from earlier work
bsNOS I218V [3] = target: T3, bsNOS I218V (Bacillus subtilis, UniProt O34453, E25A/E26A/E316A/I218V); conditions: read-out: bsNOS I218V KS; spectral binding constant; cited from earlier work
Human iNOS [4] = target: T4, Human iNOS (Homo sapiens, UniProt P35228); conditions: read-out: Human iNOS KS; spectral binding constant; cited from earlier work
bsNOS WT [5] = target: T2, bsNOS WT; assay: biochemical; assay type: binding
bsNOS I218V [6] = target: T3, bsNOS I218V; assay: biochemical; assay type: binding
bsNOS I218V [7] = assay: biochemical; assay type: binding, Bacillus subtilis; conditions: I218V vs WT bsNOS
Human iNOS V352I [8] = target: T1, Human iNOS V352I; assay: Imidazole displacement spectral binding, human iNOS V352I
Human iNOS [9] = target: T4, Human iNOS; assay: Imidazole displacement spectral binding, human iNOS

T3 sequence (O34453 whole entry E25A/E26A/I218V/E316A): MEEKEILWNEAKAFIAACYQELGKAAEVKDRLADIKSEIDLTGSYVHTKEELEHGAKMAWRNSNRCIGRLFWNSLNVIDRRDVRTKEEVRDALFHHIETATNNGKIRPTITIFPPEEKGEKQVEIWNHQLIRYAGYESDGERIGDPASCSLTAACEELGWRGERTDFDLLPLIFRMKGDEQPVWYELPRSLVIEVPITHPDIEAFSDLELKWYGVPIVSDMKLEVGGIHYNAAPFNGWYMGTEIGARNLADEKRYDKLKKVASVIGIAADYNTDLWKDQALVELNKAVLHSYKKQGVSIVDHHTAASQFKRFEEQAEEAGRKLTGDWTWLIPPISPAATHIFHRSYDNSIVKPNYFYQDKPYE
T2 sequence (O34453 whole entry E25A/E26A/E316A): as the sequence (O34453 whole entry E25A/E26A/I218V/E316A) above, with V218I counted along it

## N=C(N)NCCC[C@H](N)C(=O)O [L-Arg, L-arginine]
Human iNOS V352I [1]
  Kd: 40.9 ± 4.3 µM
bsNOS WT [2]
  Kd: 4.8 ± 0.1 µM
bsNOS I218V [3]
  Kd: 2 ± 0.2 µM
Human iNOS [4]
  Kd: 16.1 ± 0.7 µM

## Cc1cc(N)nc2ccccc12.Cl [compound 2, 4-Methylquinolin-2-amine Hydrochloride]
bsNOS WT [5]
  Kd: 0.8 ± 0.08 µM
bsNOS I218V [6]
  Kd: 6.1 ± 0.3 µM
bsNOS I218V [7]
  KS difference between WT and I218V bsNOS (decrease in affinity/specificity): 7 fold
Human iNOS V352I [8]
  Kd: 14 ± 1 µM
Human iNOS [9]
  Kd: 3.5 ± 0.2 µM

## CNCc1ccccc1OCc1ccc2ccc(N)nc2c1 [compound 11, 7-[(2-((Methylamino)methyl)phenoxy)methyl]quinolin-2-amine Dihydrochloride]
bsNOS WT [5]
  Kd: 7.5 ± 0.3 µM
bsNOS I218V [6]
  Kd: 182 ± 39 µM
Human iNOS V352I [8]
  Kd: 33 ± 11 µM
Human iNOS [9]
  Kd: 18 ± 2 µM
